The record followed here is US6518296B1, “Substituted 3-thiocarbamoylpyrazoles” (Bayer Aktiengesellschaft, priority 1998, dated 2003).

Series [1] deals with Lucilia cuprina larvae. Kind of series: Blowfly larvae test/development-inhibitory action. Type of series: in vivo. As to conditions: active compound concentration of 100 ppm, read-out: activity (development-inhibitory action; 100% means that no flies have hatched). The procedure: Blowfly larvae test/development-inhibitory action
Test animals: Lucilia cuprina larvae
(§1) Solvent: Dimethyl sulphoxide
(§2) 20 mg of active compound are dissolved in 1 ml of dimethyl sulphoxide, while dilute concentrations are prepared by dilution with dist. H2O.
About 20 Lucilia cuprina larvae are introduced into a test tube containing about 1 cm^3 of horse meat and 0.5 ml of the preparation of active compound. After 24 and 48 hours, the activity of the preparation of active compound is determined. The test tubes are transferred into beakers whose bottom is covered with sand. After a further 2 days, the test tubes are removed and the pupae are counted.
The activity of the active compound preparation is assessed by the number of flies which have hatched after 1.5 times the development time of an untreated control. 100% means that no flies have hatched; 0% means that all flies have hatched normally.

For series [2], the system named is Boophilus microplus resistant/SP-resistant Parkhurst strain. In words: Test with Boophilus microplus resistant/SP-resistant Parkhurst strain (dip test, kill). Type of series: in vivo. The settings on record: active compound concentration of 100 ppm; dipped for 1 minute. Here is the method:
Test with Boophilus microplus resistant/SP-resistant Parkhurst strain
(§3) Test animals: Adult females which have sucked themselves full
as §1, §2
10 adult Boophilus microplus res. are dipped for 1 minute into the preparation of active compound to be tested. The animals are transferred into plastic beakers and kept in a climatized room, and the kill rate is then determined.
100% means that all ticks have been killed; 0% means that none of the ticks have been killed.

For series [3] the test system is unchanged. In words: Test with Boophilus microplus resistant/SP-resistant Parkhurst strain (injection, inhibition of oviposition). Type of series: in vivo. As to conditions: 20 μg/animal; injected into the abdomen; after 7 days. Here is the method:
Test with Boophilus microplus resistantlSP-resistant Parkhurst strain
as §3, §1
20 mg of active compound are dissolved in 1 ml of dimethyl sulphoxide, while dilute concentrations are prepared by dilution with the same solvent.
The test is carried out in 5 replications. […] of the solutions is injected into the abdomen, the animals are transferred into dishes and kept in a climatized room. After 7 days, the activity control is carried out for inhibition of ovi position. An activity of 100% means that none of the ticks has deposited eggs.

The test system of series [4] is green peach aphid (Myzus persicae). In words: Myzus test. The settings on record: active compound concentration of 0.1%; after 6 days; dipped cabbage leaves. Type of series: in vivo. Here is the method:
Solvent: 7 parts by weight of dimethylformamide
Emulsifier: 1 part by weight of alkylaryl polyglycol ether
To produce a suitable preparation of active compound, 1 part by weight of active compound is mixed with the stated amounts of solvent and emulsifier, and the concentrate is diluted with water to the desired concentration.
Cabbage leaves (Brassica oleracea) which are heavily infested by the green peach aphid (Mycus persicae) are treated by being dipped into the preparation of active compound of the desired concentration.
After the desired period of time, the kill in % is determined. 100% means that all aphids have been killed; 0% means that none of the aphids have been killed.

Structures are written as SMILES.

The melting point is the temperature of the solid-liquid transition. In turn, `CCSc1c(C(N)=S)nn(-c2c(Cl)cc(C(F)(F)F)cc2Cl)c1N` [Preparation Example 1, 5-amino-4-ethylthio-l-(2,6-dichloro-4-trifluoro-methylphenyl)-3-thiocarbamoyl-pyrazole] had a melting point of 101 °C. In addition, the inhibition at 100 ppm in series [1] stood at 100%. In addition, the “activity (kill rate of ticks)” value in series [2] stood at 100%. For the same compound, the “activity (inhibition of oviposition)” value in series [3] was 100%. Further, in series [4], the kill stood at 90%.
